Data on 23 compounds can be found in patent US9777017B2, “Tricyclic fused thiophene derivatives as JAK inhibitors” (Incyte Corporation, priority 2012, dated 2017).

What all share (assay type): biochemical
The subject of test [1] is human JAK1. The experiment in a line: In vitro JAK kinase assay (HTRF, phosphorylation of a biotinylated peptide), JAK1. The following applies: ratio of IC50s, 1 mM ATP. The method, boiled down:
(§1)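 Baculovirus-expressed catalytic domains (JAK1 a.a. 837-1142, JAK2 a.a. 828-1132) phosphorylate 500 nM biotinylated peptide at 1 mM ATP, Tris pH 7.8, 1 h at room temperature. EDTA stop and HTRF detection with Eu-Py20/SA-APC; IC50 values derived.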
In general terms: Time-resolved FRET reads energy transfer from a long-lived donor to a nearby acceptor.

Test [2] has as its target human JAK1 (Homo sapiens, UniProt P23458). The description is as above. To be noted: 1 mM ATP. The method, boiled down: as §1
The next test has as its target human JAK2 (Homo sapiens (Human), UniProt O60674). The experiment in a line: In vitro JAK kinase assay (HTRF, phosphorylation of a biotinylated peptide), JAK2. Further details: key to JAK2 IC50 (nM): +indicates an IC50 of ≦100 nM; ++indicates an IC50 of ≦1000 nM; +++indicates an IC50 of ≦2000 nM; ++++indicates an IC50 of >2000 nM; +++++indicates that the IC50 was greater than the highest concentration tested. To be noted: 1 mM ATP. The procedure, abridged: as §1

human JAK2, sequence (O60674 828-1132): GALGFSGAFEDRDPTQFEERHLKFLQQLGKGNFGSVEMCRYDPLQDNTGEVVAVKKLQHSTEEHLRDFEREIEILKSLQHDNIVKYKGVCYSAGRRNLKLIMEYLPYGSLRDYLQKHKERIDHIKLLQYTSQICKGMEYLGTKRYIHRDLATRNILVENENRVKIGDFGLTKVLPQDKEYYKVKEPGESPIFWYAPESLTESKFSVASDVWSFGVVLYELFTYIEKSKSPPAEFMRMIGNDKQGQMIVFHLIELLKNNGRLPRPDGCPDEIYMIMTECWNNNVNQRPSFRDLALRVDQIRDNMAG

On to `C[C@@H](O)c1nc2cnc3ccsc3c2n1[C@H]1CCCN(CCC#N)C1` [Example 56, 3-((3S)-3-{2-[(1R)-1-Hydroxyethyl]-1H-imidazo[4,5-d]thieno[3,2-b]pyridin-1-yl}piperidin-1-yl)propanenitrile], for which the JAK2/JAK1 in the test with human JAK1 [1] is over 10. Also, the IC50 (in general, the concentration at which inhibition is half-maximal) at human JAK1 [2] was at most 1 µM. The “JAK2 IC50 (nM)” value on human JAK2 is given as “+++++”.
On to `C[C@@H](O)c1nc2cnc3ccsc3c2n1[C@H]1CCCN(C(=O)CCc2ccccc2)C1` [Example 57], for which the JAK2/JAK1 in the test on human JAK1 [1] is recorded as over 10. Further, the IC50 against human JAK1 [2] is at most 0.1 µM; against human JAK2, over 2 µM.
Regarding `C[C@@H](O)c1nc2cnc3ccsc3c2n1[C@H]1CCCN(C(=O)CCC#N)C1` [Example 58, 4-((3S)-3-{2-[(1R)-1-Hydroxyethyl]-1H-imidazo[4,5-d]thieno[3,2-b]pyridin-1-yl}piperidin-1-yl)-4-oxobutanenitrile], the JAK2/JAK1 in the test with human JAK1 [1] is reported as over 10. On human JAK1 [2], this compound yielded an IC50 of at most 0.1 µM. Also, on human JAK2, the “JAK2 IC50 (nM)” value was “+++++”.
For `C[C@@H](O)c1nc2cnc3ccsc3c2n1[C@H]1CCCN(C(=O)CCCC#N)C1` [Example 59, 5-((3S)-3-{2-[(1R)-1-Hydroxyethyl]-1H-imidazo[4,5-d]thieno[3,2-b]pyridin-1-yl}piperidin-1-yl)-5-oxopentanenitrile], the JAK2/JAK1 in the test on human JAK1 [1] is on record as over 10. For the same compound, the IC50 against human JAK1 [2] is at most 1 µM. Also, the “JAK2 IC50 (nM)” value on human JAK2 is “+++++”.
Regarding `C[C@@H](O)c1nc2cnc3ccsc3c2n1C1CCN(CCCC(F)(F)F)CC1` [Example 60, (1R)-1-{1-[1-(4,4,4-Trifluorobutyl)piperidin-4-yl]-1H-imidazo[4,5-d]thieno[3,2-b]pyridin-2-yl}ethanol], in the test with human JAK1 [1], the JAK2/JAK1 is over 10. The compound further yielded an IC50 at human JAK1 [2] of at most 1 µM. In addition, the “JAK2 IC50 (nM)” value at human JAK2 was “+++++”.
With `C[C@@H](O)c1nc2cnc3ccsc3c2n1C1CCN(CC#N)CC1.O=C(O)C(F)(F)F` [Example 61, (4-{2-[(1R)-1-Hydroxyethyl]-1H-imidazo[4,5-d]thieno[3,2-b]pyridin-1-yl}piperidin-1-yl)acetonitrile trifluoroacetate], in the test with human JAK1 [1], the JAK2/JAK1 was over 10. The compound further displayed an IC50 on human JAK1 [2] of at most 1 µM. Further, at human JAK2, the “JAK2 IC50 (nM)” value is given as “+++++”.
With `C[C@@H](O)c1nc2cnc3ccsc3c2n1[C@H]1CCN(CCC#N)C1` [Example 62, 3-((3S)-3-{2-[(1R)-1-Hydroxyethyl]-1H-imidazo[4,5-d]thieno[3,2-b]pyridin-1-yl}pyrrolidin-1-yl)propanenitrile], the JAK2/JAK1 in the test on human JAK1 [1] was over 10. The IC50 was at most 1 µM against human JAK1 [2] and over 2 µM on human JAK2.
Consider `C[C@@H](O)c1nc2cnc3ccsc3c2n1[C@H]1CCN(C(=O)CC#N)C1` [Example 63, 3-((3S)-3-{2-[(1R)-1-Hydroxyethyl]-1H-imidazo[4,5-d]thieno[3,2-b]pyridin-1-yl}pyrrolidin-1-yl)-3-oxopropanenitrile], for which, in the test on human JAK1 [1], the JAK2/JAK1 is given as over 6. At human JAK1 [2], this compound displayed an IC50 of at most 2 µM. The “JAK2 IC50 (nM)” value on human JAK2 is listed as “+++++”.
Regarding `C[C@@H](O)c1nc2cnc3ccsc3c2n1[C@H]1CCN(CCCC(F)(F)F)C1` [Example 64, (1R)-1-{1-[(3S)-1-(4,4,4-Trifluorobutyl)pyrrolidin-3-yl]-1H-imidazo[4,5-d]thieno[3,2-b]pyridin-2-yl}ethanol], the JAK2/JAK1 in the test on human JAK1 [1] was over 10. The IC50 at human JAK1 [2] is at most 0.1 µM. For the same compound, the “JAK2 IC50 (nM)” value at human JAK2 is on record as “+++++”.
For the compound `C[C@@H](O)c1nc2cnc3ccsc3c2n1[C@H]1CCN(CCCC#N)C1` [Example 65, 4-((3S)-3-{2-[(1R)-1-Hydroxyethyl]-1H-imidazo[4,5-d]thieno[3,2-b]pyridin-1-yl}pyrrolidin-1-yl)butanenitrile], the JAK2/JAK1 in the test on human JAK1 [1] is over 10. The compound also came in with an IC50 against human JAK1 [2] of at most 1 µM. Moreover, the “JAK2 IC50 (nM)” value at human JAK2 is listed as “+++++”.
For the compound `C[C@@H](O)c1nc2cnc3ccsc3c2n1[C@H]1CCN(CCCCC#N)C1` [Example 66, 5-((3S)-3-{2-[(1R)-1-Hydroxyethyl]-1H-imidazo[4,5-d]thieno[3,2-b]pyridin-1-yl}pyrrolidin-1-yl)pentanenitrile], the JAK2/JAK1 with human JAK1 [1] was over 10. This compound displayed an IC50 on human JAK1 [2] of at most 1 µM. In addition, the “JAK2 IC50 (nM)” value at human JAK2 was “+++++”.
As to `C[C@@H](O)c1nc2cnc3ccsc3c2n1[C@H]1CC[C@H](CC#N)[C@H](N)C1` [Example 67, ((1R,2R,4S)-2-Amino-4-{2-[(1R)-1-hydroxyethyl]-1H-imidazo[4,5-d]thieno[3,2-b]pyridin-1-yl}cyclohexyl)acetonitrile], in the test with human JAK1 [1], the JAK2/JAK1 is over 10. Besides, the IC50 is at most 1 µM against human JAK1 [2] and over 2 µM against human JAK2.
In the case of `CC(N)c1nc2cnc3ccsc3c2n1[C@H]1CC[C@H](CC#N)OC1.O=C(O)C(F)(F)F` (stereo partly drawn) [Example 68, {(2R,5S)-5-[2-(1-Aminoethyl)-1H-imidazo[4,5-d]thieno[3,2-b]pyridin-1-yl]tetrahydro-2H-pyran-2-yl}acetonitrile trifluoroacetate], the JAK2/JAK1 with human JAK1 [1] is recorded as over 10. For the same compound, the IC50 on human JAK1 [2] was at most 0.1 µM; at human JAK2 it was at most 2 µM.
As to `CC(=O)NC(C)c1nc2cnc3ccsc3c2n1[C@H]1CC[C@H](CC#N)OC1` (stereo partly drawn) [Example 69, N-(1-{1-[(3S,6R)-6-(Cyanomethyl)tetrahydro-2H-pyran-3-yl]-1H-imidazo[4,5-d]thieno[3,2-b]pyridin-2-yl}ethyl)acetamide], in the test with human JAK1 [1], the JAK2/JAK1 is listed as over 10. This compound also gave an IC50 at human JAK1 [2] of at most 1 µM. The “JAK2 IC50 (nM)” value at human JAK2 is “+++++”.
As to `CNC(C)c1nc2cnc3ccsc3c2n1[C@H]1CC[C@H](CC#N)OC1` (stereo partly drawn) [Example 70, ((2R,5S)-5-{2-[1-(Methylamino)ethyl]-1H-imidazo[4,5-d]thieno[3,2-b]pyridin-1-yl}tetrahydro-2H-pyran-2-yl)acetonitrile], the JAK2/JAK1 with human JAK1 [1] is reported as over 10. For the same compound, the IC50 is at most 1 µM on human JAK1 [2] and over 2 µM at human JAK2.
With `CC(F)c1nc2cnc3ccsc3c2n1[C@H]1CC[C@H](CC#N)OC1` (stereo partly drawn) [Example 71, {(2R,5S)-5-[2-(1-Fluoroethyl)-1H-imidazo[4,5-d]thieno[3,2-b]pyridin-1-yl]tetrahydro-2H-pyran-2-yl}acetonitrile], the JAK2/JAK1 in the test on human JAK1 [1] is reported as over 10. The IC50 was at most 0.1 µM against human JAK1 [2] and at most 1 µM at human JAK2.
For `N#CCc1nc2cnc3ccsc3c2n1[C@H]1CC[C@H](CC#N)OC1` [Example 73, {(2R,5S)-5-[2-(Cyanomethyl)-1H-imidazo[4,5-d]thieno[3,2-b]pyridin-1-yl]tetrahydro-2H-pyran-2-yl}acetonitrile], the JAK2/JAK1 in the test on human JAK1 [1] was over 10. The figures for the IC50 on human JAK1 [2] and against human JAK2 were at most 0.1 µM and at most 1 µM, respectively.
For `N#CCc1nc2cnc3ccsc3c2n1[C@H]1CC[C@@H](CC#N)OC1` [Example 74, {(2S,5S)-5-[2-(Cyanomethyl)-1H-imidazo[4,5-d]thieno[3,2-b]pyridin-1-yl]tetrahydro-2H-pyran-2-yl}acetonitrile], the JAK2/JAK1 in the test with human JAK1 [1] was over 10. The IC50 on human JAK1 [2] was at most 1 µM. Moreover, the “JAK2 IC50 (nM)” value at human JAK2 is on record as “+++++”.
Consider `C[C@@H](O)c1nc2cnc3ccsc3c2n1[C@H]1CC[C@H](CNS(C)(=O)=O)OC1` [Example 75, N-[((2R,5S)-5-{2-[(1R)-1-Hydroxyethyl]-1H-imidazo[4,5-d]thieno[3,2-b]pyridin-1-yl}tetrahydro-2H-pyran-2-yl)methyl]methanesulfonamide], for which the JAK2/JAK1 in the test on human JAK1 [1] is over 10. Also, the figures for the IC50 on human JAK1 [2] and against human JAK2 were at most 0.1 µM and at most 2 µM, respectively.
Regarding `CC(C)OC(=O)NC[C@H]1CC[C@H](n2c([C@@H](C)O)nc3cnc4ccsc4c32)CO1` [Example 76, Isopropyl [((2R,5S)-5-{2-[(1R)-1-hydroxyethyl]-1H-imidazo[4,5-d]thieno[3,2-b]pyridin-1-yl}tetrahydro-2H-pyran-2-yl)methyl]carbamate], in the test on human JAK1 [1], the JAK2/JAK1 is on record as over 10. Also, the IC50 was at most 0.1 µM against human JAK1 [2] and at most 2 µM against human JAK2.
Take `COC(=O)NC[C@H]1CC[C@H](n2c([C@@H](C)O)nc3cnc4ccsc4c32)CC1` [Example 78, Methyl [(trans-4-{2-[(1R)-1-hydroxyethyl]-1H-imidazo[4,5-d]thieno[3,2-b]pyridin-1-yl}cyclohexyl)methyl]carbamate]: the JAK2/JAK1 with human JAK1 [1] is over 10. Further, the IC50 on human JAK1 [2] was at most 0.1 µM; on human JAK2, at most 1 µM.
Regarding `CC(=O)NC[C@H]1CC[C@H](n2c([C@@H](C)O)nc3cnc4ccsc4c32)CC1` [Example 79, N-[(trans-4-{2-[(1R)-1-Hydroxyethyl]-1H-imidazo[4,5-b]thieno[3,2-b]pyridin-1-yl}cyclohexyl)methyl]acetamide], in the test with human JAK1 [1], the JAK2/JAK1 was over 10. For the same compound, the IC50 against human JAK1 [2] is at most 0.1 µM; against human JAK2 it was at most 2 µM.
In the case of `C[C@@H](O)c1nc2cnc3ccsc3c2n1[C@H]1CC[C@H](CNS(C)(=O)=O)CC1` [Example 80, N-[(trans-4-{2-[(1R)-1-Hydroxyethyl]-1H-imidazo[4,5-d]thieno[3,2-b]pyridin-1-yl}cyclohexyl)methyl]methanesulfonamide], the JAK2/JAK1 with human JAK1 [1] is on record as over 10. For the same compound, the figures for the IC50 against human JAK1 [2] and on human JAK2 were at most 0.1 µM and at most 2 µM, respectively.
